Data as given in patent US6521814B1, “Use of ligands for treatment of diseases responsive to retinoids” (Institut National de la Santa et de la Recherche Medicale, priority 1997, dated 2003).

What was measured:
RARα−/− F9 cells [1] = assay: Apoptosis of F9 cells (Hoechst 33258 staining, FACS); format: cell-based, murine; conditions: 1 μM, 6 d
Protocol: (§1) Apoptosis was analyzed by both Hoechst staining of nuclei and FACS® analysis, as previously described (Clifford, J., et al., EMBO J. 15:4142-4155 (1996)).

RXRα−/−/RARα−/− F9 cells [2] = assay: Proliferation of F9 cells in monolayer culture (cell counting, [3H]thymidine incorporation, cell cycle FACS); format: cell-based, murine; conditions: 1 μM, 5 d
RXRα−/− F9 cells [3] = assay: as above; format: cell-based, murine; conditions: 1 μM, 5 d
RXRα−/−/RARγ−/− F9 cells [4] = assay: Apoptosis of F9 cells (Hoechst 33258 staining, FACS); format: cell-based, murine; conditions: 1 μM, after 5 d
RXRα−/− F9 cells [5] = assay: Differentiation of F9 cells into primitive and parietal endoderm-like cells in monolayer (morphology, RT-PCR of collagen type IVα1 and laminin B1); format: cell-based, murine; conditions: 1 μM, 48 h
From the text: (§2) The differentiation patterns of RXRα^−/−/RARα^−/−and RXRα^−/−/RARγ^−/− cells were compared with those of WT and single knockout cell lines.
(§3) Transcript levels were quantified using a BAS 2000 bioimaging analyzer (Fuji Ltd., Tokyo, Japan), and were normalized to the corresponding 36B4 signals.

RXRα−/−/RARα−/− F9 cells [6] = assay: as above; format: cell-based, murine
From the text: as §2, §3

RXRα−/−/RARγ−/− F9 cells [7] = assay: as above; format: cell-based, murine
From the text: as §2, §3

RARγ−/− F9 cells [8] = assay: Apoptosis of F9 cells (Hoechst 33258 staining, FACS); format: cell-based, murine; conditions: 1 μM, 6 d
Protocol: as §1

WT F9 cells [9] = assay: as above; format: cell-based, murine; conditions: 1 μM
Protocol: as §1

RXRα−/−/RARγ−/− F9 cells [10] = assay: Proliferation of F9 cells in monolayer culture (cell counting, [3H]thymidine incorporation, cell cycle FACS); format: cell-based, murine; conditions: 1 μM
RXRα−/−/RARα−/− F9 cells [11] = assay: Apoptosis of F9 cells (Hoechst 33258 staining, FACS); format: cell-based, murine; conditions: 1 μM
RARα−/− F9 cells [12] = assay: Differentiation of F9 cells into primitive and parietal endoderm-like cells in monolayer (morphology, RT-PCR of collagen type IVα1 and laminin B1); format: cell-based, murine; conditions: 1 μM, 48 h
Protocol: as §2
(§4) F9 cells were cultured and induced to differentiate into primitive, parietal and visceral endoderm-like cells as previously described (Boylan, J., et al., Proc. Natl. Acad. Sci. USA 90:9601-9605 (1993); Clifford, J., et al., EMBO J. 15:4142-4155 (1996)).
(§5) RNA preparation, RT-PCR, and Southern blotting were performed as previously described (Bouillet, P., et al., Dev. Biol. 170:420-433 (1995); Roy, B., et al., Mol. Cell. Biol. 15:6481-6487 (1995)). The PCR primers and end-labeled oligonucleotide probes for collagen IVα1, laminin B1, α-fetoprotein (AFP), and 36B4, were described previously (Clifford, J., et al ., EMBO J. 15:4142-4155 (1996)). Transcript levels were quantified using a BAS 2000 bioimaging analyzer (Fuji Ltd., Tokyo, Japan), and were normalized to the corresponding 36B4 signals.

RARγ−/− F9 cells [13] = assay: as above; format: cell-based, murine; conditions: 1 μM, 48 h
Protocol: as §2, §4, §5

RARα = target: T1, RARα (Mus musculus, UniProt P11416); assay: D2R promoter CAT reporter assay in COS-1 cells cotransfected with RARα expression vector; format: cell-based; conditions: 0.1 μM
T1 construct: expressed in transfected cells; host or cells: COS-1
T1 sequence (P11416 1-462): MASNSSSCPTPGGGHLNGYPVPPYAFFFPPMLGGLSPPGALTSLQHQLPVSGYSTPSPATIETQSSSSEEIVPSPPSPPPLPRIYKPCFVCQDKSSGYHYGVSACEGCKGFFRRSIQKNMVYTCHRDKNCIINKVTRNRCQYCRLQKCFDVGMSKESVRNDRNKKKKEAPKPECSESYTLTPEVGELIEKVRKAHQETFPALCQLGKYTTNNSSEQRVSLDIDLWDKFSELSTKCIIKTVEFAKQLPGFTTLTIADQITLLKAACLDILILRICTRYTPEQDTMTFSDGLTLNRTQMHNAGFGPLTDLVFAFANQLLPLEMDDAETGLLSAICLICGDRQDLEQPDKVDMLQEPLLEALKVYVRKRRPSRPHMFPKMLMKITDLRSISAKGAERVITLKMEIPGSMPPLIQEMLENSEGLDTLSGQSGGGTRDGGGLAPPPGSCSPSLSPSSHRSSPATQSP

WT F9 cells [14] = assay: Proliferation of F9 cells in monolayer culture (cell counting, [3H]thymidine incorporation, cell cycle FACS); format: cell-based, murine; conditions: 1 μM, 5 d
Protocol: Cells were plated in triplicate 3-cm culture wells (5×10^2 cells per well), and cell counting experiments were performed as previously described (Clifford, J., et al., EMBO J. 15:4142-4155 (1996)). [^3H]Thymidine incorporation assays were performed essentially as described (Clifford, J., et al., EMBO J. 15:4142-4155 (1996)), with the following modifications. […] The cell cycle profile of WT and mutant cells was determined as previously described (Clifford, J., et al. EMBO J. 15:4142-4155 (1996)).

[15] = 1 μM tRA alone or with 250 μM bt2cAMP, after 4 d

For CC1=C(/C=C/C(C)=C/C=C/C(C)=C/C(=O)O)C(C)(C)CCC1 [tRA, all-trans retinoic acid], the “proportion of apoptotic nuclei and subcellular fragments (Hoechst 33258)” value (from here on “proportion … (Hoechst 33258)”) (RARα−/− F9 cells [1]) was “++ (>10%)”, the “proportion of cells in the G0 and G1 phases (FACS)” value (“proportion of cells” below) (RXRα−/−/RARα−/− F9 cells [2]) was 40% and the “proportion of cells” value (RXRα−/− F9 cells [3]) was 38%. The “sub-2N size DNA-containing particles ('apoptotic bodies'), FACS” value (“sub-2N size DNA-containing particles” for short) (RXRα−/−/RARγ−/− F9 cells [4]) was “not detected”, the “induction of collagen type IVα1 mRNA, lower level compared to WT cells” value (RXRα−/− F9 cells [5]) was 3 fold and the “induction of laminin B1 mRNA, lower level compared to WT cells” value (RXRα−/− F9 cells [5]) was 6 fold. For the same molecule, the “cells with morphological characteristics of primitive or parietal endodermal differentiation” value (RXRα−/−/RARα−/− F9 cells [6]; [15]) was < 10%, the “induction of collagen type IVα1 mRNA, lower level compared to WT cells” value (RXRα−/−/RARα−/− F9 cells [6]; 1 μM, 48 h) was “five” and the morphological differentiation (RXRα−/−/RARγ−/− F9 cells [7]; [15]) was “No morphological differentiation at all”. For the same molecule, the “induction of collagen type IVα1 and laminin B1 mRNA” value (RXRα−/−/RARγ−/− F9 cells [7]; 1 μM, 48 h) was “fully abrogated”, the “cells exhibiting a differentiated morphology” value (RXRα−/−/RARγ−/− F9 cells [7]; after 6 days of treatment) was < 0.1% and the morphological differentiation (RXRα−/−/RARγ−/− F9 cells [7]; after 10 d of treatment) was “undifferentiated phenotype persisted”. For the same molecule, the “proportion … (Hoechst 33258)” value (RARγ−/− F9 cells [8]) was “+ (>1-10%)”, the “proportion … (Hoechst 33258)” value (WT F9 cells [9]; 6 d) was “++ (>10%)” and the “sub-2N size DNA-containing particles” value (WT F9 cells [9]; after 5 d) was “appeared”. The “inhibition of [3H]thymidine incorporation” value (RXRα−/−/RARγ−/− F9 cells [10]; 4 d) was “no inhibition”, the “cell cycle profile (FACS)” value (RXRα−/−/RARγ−/− F9 cells [10]; 5 d) was “not significantly affected” and the “effect on number of cells (cell counting)” value (RXRα−/−/RARγ−/− F9 cells [10]; 6 d) was “did not reduce, but slightly increased”. The “proportion … (Hoechst 33258)” value (RXRα−/−/RARα−/− F9 cells [11]; 6 d) was “± (<1%)”, the “sub-2N size DNA-containing particles” value (RXRα−/−/RARα−/− F9 cells [11]; after 5 d) was “not detected” and the “induction of collagen type IVα1 and laminin B1 mRNA compared to WT cells” value (RARα−/− F9 cells [12]) was “not altered”. The “induction of collagen type IVα1 mRNA, lower level compared to WT cells” value (RARγ−/− F9 cells [13]) was 10 fold, the “induction of laminin B1 mRNA, lower level compared to WT cells” value (RARγ−/− F9 cells [13]) was 6 fold and the “increase of CAT activity” value (RARα; C1 reporter + RARα expression vector) was 16 fold. For the same molecule, the “increase of CAT activity” value (RARα; C2 reporter + RARα expression vector) was 35 fold and the “proportion of cells” value (WT F9 cells [14]) was 71%.
